{"source": "patent US20190307783A1", "about": "“USE OF ANTIVIRALS TO INHIBIT PROTOZOAN VIRUSES” (priority 2016, published 2019)", "key": {"[1]": {"system": "LRV1 (LgyLRV1 capsid levels)", "test": "microbe, parasite or virus in culture", "from_the_text": "Because LRV1 (like most Totiviridae) is not shed from the cell (33, 34), we developed a flow cytometric assay to measure intracellular LRV1 capsid levels on a per cell basis. To detect LRV1 we used binding to a rabbit anti-LgyLRV1 capsid antiserum (35) followed by detection with Alexa Fluor488-conjugated goat anti-rabbit IgG.\n(§1) Parasites were inoculated at 2×10^5 cells/mL into Schneider's media lacking supplemental adenine.\nFor capsid flow cytometry, 10^7 cells were fixed at room temperature using 2% (wt/vol) paraformaldehyde (Thermo Fisher Scientific) in PBS for 2 minutes. They were then incubated in blocking buffer [10% (vol/vol) normal goat serum (Vector Laboratories, Burlingame, Calif., USA) and 0.2% TRITON X-100 in PBS] for 30 minutes at room temperature. Anti-LgyLRV1 capsid antibody (35) was added (1:20,000 dilution) and incubated at room temperature for 1 hour. After two washes with PBS, cells were resuspended in 200 μL PBS with Alexa Fluor488-labeled goat anti-rabbit IgG (Alexafluor, Invitrogen; 1:1,000; or Thermo Fisher Scientific; 1:2,000 dilution), and incubated 1 hour at room temperature. After two additional washes with PBS, cells were subjected to flow cytometry, gating for single cells using forward and side scatter and the data analyzed using […] software (BD Bioscience, San Jose, Calif., USA)."}, "[2]": {"system": "L. guyanensis (LgyLRV1+)", "test": "Drug-inhibition test: growth of LgyLRV1+ parasites", "assay_type": "cell-based, Leishmania guyanensis", "description": "These compounds were examined for their ability to inhibit the growth of LgyLRV1^+ and virus levels by LRV1 capsid flow cytometry.\nMost studies were performed using luciferase-expressing transfectants of L. guyanensis (MHOM/BR/78/M4147) described previously [LRV1^+ LgyM4147/SSU:IR2SAT-LUC(b)c3 and LRV^−LgyM4147/pX63HYG/SSU:IR2SAT-LUC(b)c4] (54); these lines are termed LgyLRV1^+ and LgyLRV1^−, respectively. Two strains of LRV1^+L. braziliensis were examined: LEM2780 (MHOM/BO/90/CS) and LEM3874 (MHOM/BO/99/IMT252 no. 3) (12). Parasites were grown in Schneider's media (Sigma Aldrich, St. Louis, Mo., USA) prepared according to the supplier's instructions with pH adjusted to 6.5 and supplemented with 0.76 mM hemin, 2 μg/mL biopterin, 50 U/mL penicillin, 50 μg/mL streptomycin, and 10% (vol/vol) heat-inactivated FBS. Cell concentrations were determined using a Coulter Counter ([…], Indianapolis, Ind., USA).\nas §1"}, "[3]": {"details": "animal models; cited from earlier work"}, "[4]": {"system": "Zika virus", "details": "cultured mammalian cells; read-out: EC50 against Zika virus; cited from earlier work"}, "[5]": {"molecular_target": "Lgy LRV1 RDRP (Leishmania RNA virus 1 - 4, UniProt Q02382)", "sequence (Q02382 whole entry)": "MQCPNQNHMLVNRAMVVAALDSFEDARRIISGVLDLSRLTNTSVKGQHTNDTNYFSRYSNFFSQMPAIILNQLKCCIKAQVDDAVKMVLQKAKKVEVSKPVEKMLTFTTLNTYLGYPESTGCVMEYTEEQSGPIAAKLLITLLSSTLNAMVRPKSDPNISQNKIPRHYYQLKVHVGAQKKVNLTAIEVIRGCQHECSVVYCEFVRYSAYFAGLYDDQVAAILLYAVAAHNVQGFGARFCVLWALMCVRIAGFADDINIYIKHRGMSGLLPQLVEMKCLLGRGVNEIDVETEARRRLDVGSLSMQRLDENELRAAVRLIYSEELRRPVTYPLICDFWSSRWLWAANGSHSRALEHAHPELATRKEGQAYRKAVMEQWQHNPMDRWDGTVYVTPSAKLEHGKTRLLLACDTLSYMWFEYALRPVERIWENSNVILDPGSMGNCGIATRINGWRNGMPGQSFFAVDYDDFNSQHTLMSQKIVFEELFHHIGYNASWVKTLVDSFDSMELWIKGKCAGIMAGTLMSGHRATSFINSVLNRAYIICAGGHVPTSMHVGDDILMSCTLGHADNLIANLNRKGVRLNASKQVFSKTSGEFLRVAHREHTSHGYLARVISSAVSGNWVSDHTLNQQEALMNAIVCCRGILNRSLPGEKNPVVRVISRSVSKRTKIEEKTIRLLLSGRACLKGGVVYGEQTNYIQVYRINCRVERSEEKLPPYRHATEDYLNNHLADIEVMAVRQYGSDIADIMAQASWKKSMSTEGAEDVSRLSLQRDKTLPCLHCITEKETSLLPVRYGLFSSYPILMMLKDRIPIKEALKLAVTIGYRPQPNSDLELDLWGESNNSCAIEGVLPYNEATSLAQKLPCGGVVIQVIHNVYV", "test": "RDRP assay of purified virions, [α-32P]UTP incorporation", "assay_type": "biochemical, Leishmania RNA virus 1 (Lgy strain M4147)", "details": "highest concentration tested 600 μM", "description": "RDRP assays were carried out with LRV1 virions purified from Lgy strain M4147 by an established cesium chloride (CsCl) equilibrium ultracentrifugation procedure {Widmer, 1989; Widmer, 1990}. Following separation, virus particles were detected and quantified by their reactivity with an anti-capsid antibody (FIG. 21). We reproducibly observed three overlapping ‘peaks’, designated low-, medium-, and high-density (LD, MD and HD) in order of increasing density. […] The densities of the Lgy LRV1 LD, MD and HD peaks were 1.29, 1.36 and 1.41 g/mL, in good agreement with the densities of L-A virus particles bearing ssRNA- and dsRNA- (1.31 and 1.41 g/mL, respectively) {Esteban, 1986}. […]\nTo measure RDRP activity, purified virions were allowed to incorporate [α-^32P]UTP in the presence of the remaining nucleoside triphosphates for 1 hour, a time chosen to allow one round of transcription or replication of the viral genome {Widmer, 1990}. RNA was purified and separated by native gel electrophoresis, and the products were visualized and quantified. […]\nRDRP activity of purified virions was measured using an [α-^32P]UTP incorporation assay described previously{Widmer, 1990}. […] The standards lane was excised and stained with ethidium bromide, while the radiolabeled products were detected by exposing an imaging plate for 24 hours and reading it with a FLA-5100 phosphoimager (Fujifilm, Tokyo, Japan). […]"}, "[6]": {"details": "48 h, read-out: Percent control (LRV1 capsid)"}, "[7]": {"details": "screen at 100 μM or maximum concentration permitted by solubility, 2 days"}, "[8]": {"details": "LgyLRV1+, tested at 50 μM, growth after 2 days"}}, "note": "Entries after “also recorded” stand apart in the source; their conditions may differ. Like-named read-outs stand apart in the source and are kept apart here."}
{"smiles": "C[C@@]1(O)[C@H](O)[C@@H](CO)O[C@H]1n1ccc2c(N)ncnc21", "note": "[2′C-methyl-7-deaza-adenosine, 7-deaza-2′-C-methyladenosine]", "values": [{"measurement": "activity at 100 µM", "setting": "[1]; [6]", "result": 10, "unit": "%"}, {"measurement": "Selectivity for LRV1 versus L. guyanensis growth inhibition", "setting": "[1]; EC50 growth vs EC50 LRV1 capsid", "result": "> 20", "unit": "fold"}, {"measurement": "LRV1 capsid (geometric mean FU)", "setting": "[1]; LgyLRV1+, tested at 100 μM, 2 days", "result": 27, "unit": "FU"}, {"measurement": "EC50", "setting": "[1]; read-out: EC50 for LRV1 capsid inhibition", "result": "~5", "unit": "µM"}, {"measurement": "Reduction in LRV1 capsid levels", "setting": "[1]; tested at 100 μM", "result": 12, "unit": "fold"}, {"measurement": "activity at 100 µM", "setting": "[2]; Leishmania guyanensis, 48 h, LgyLRV1+, tested at 100 μM, growth after 2 days, read-out: Percent control (density)", "result": 20, "unit": "%"}, {"measurement": "EC50", "setting": "[2]; Leishmania guyanensis, L. guyanensis, relative cellular growth rate, titration, read-out: EC50 for parasite growth", "result": "> 100", "unit": "µM"}, {"measurement": "inhibition at 100 µM", "setting": "[2]; Leishmania guyanensis, tested at 100 μM, read-out: Inhibition of parasite density", "result": 90, "unit": "%"}, {"measurement": "Density (cells/mL)", "setting": "[2]; LgyLRV1+, tested at 100 μM, growth after 2 days", "result": "3.38E+6", "unit": "cells/mL"}, {"measurement": "Serum half-life", "setting": "[3]", "result": 1.6, "unit": "h"}, {"measurement": "EC50", "setting": "[4]", "result": 10, "unit": "µM"}]}
{"smiles": "Nc1ncnc2c1ncn2[C@H]1C[C@H](O)[C@@H](COP(=O)(O)OP(=O)(O)OP(=O)(O)O)O1", "note": "[dATP]", "values": [{"measurement": "Inhibition of RDRP activity, in words", "setting": "[5]", "result": "failed to inhibit; also recorded: completely inactive"}]}
{"smiles": "CC(C)C[C@H](NC(=O)[C@H]1O[C@@H]1C(=O)O)C(=O)NCCCCN=C(N)N", "note": "[e64, E-64]", "values": [{"measurement": "LRV1 capsid (geometric mean FU)", "setting": "[1]", "result": 153, "unit": "FU"}, {"measurement": "Percent control (LRV1 capsid)", "setting": "[1]; LgyLRV1+, tested at 50 μM, 2 days", "result": 58, "unit": "Percent control"}, {"measurement": "Effect on LRV1 (capsid) levels, in words", "setting": "[1]; [7]", "result": "only minimal effects"}, {"measurement": "Density (cells/mL)", "setting": "[2]; [8]", "result": "1.80E+07", "unit": "cells/mL"}, {"measurement": "Percent control (density)", "setting": "[2]; [8]", "result": 107, "unit": "Percent control"}, {"measurement": "Effect on L. guyanensis growth, in words", "setting": "[2]; [7]", "result": "no effects"}]}
{"smiles": "CCOC(=O)[C@H]1O[C@@H]1C(=O)N[C@@H](CC(C)C)C(=O)NCCC(C)C", "note": "[e64d, E64-d]", "values": [{"measurement": "activity at 10 µM", "setting": "[1]; [6]", "result": 37, "unit": "%"}, {"measurement": "LRV1 capsid (geometric mean FU)", "setting": "[1]; LgyLRV1+, tested at 10 μM, 2 days", "result": 97, "unit": "FU"}, {"measurement": "activity at 10 µM", "setting": "[2]; Leishmania guyanensis, 48 h, LgyLRV1+, tested at 10 μM, growth after 2 days, read-out: Percent control (density)", "result": 90, "unit": "%"}, {"measurement": "Density (cells/mL)", "setting": "[2]; LgyLRV1+, tested at 10 μM, growth after 2 days", "result": "1.52E+07", "unit": "cells/mL"}]}
